# Test system: MV4-11 cells
# Test: Annexin-V staining (apoptosis), MV4-11
# Format: cell-based, human
# Settings: gilteritinib alone 3, 10 and 30 nM, 48 hours, vs vehicle
# Description: MV4-11 cells were seeded in 12-well plates at a concentration of 2 × 10^5 cells/well and cultured overnight. […] MOLM-13 cells were seeded in 12-well plates at a concentration of 1 × 10^5 cells/well and cultured overnight.
# Cells were harvested and incubated with Guava® Nexin Reagent (Merck Millipore Corporation, Billerica, MA). Annexin-V-positive cells were assessed using a Guava® PCA microcytometer (Merck Millipore Corporation); the percentage of annexin-V-positive cells (2000 cells per sample) was analyzed using CytoSoft™ software (Merck Millipore Corporation). Mean percentages of annexin-V-positive cells were derived from three independent experiments.
structure (smiles),measurement,value
CCc1nc(C(N)=O)c(Nc2ccc(N3CCC(N4CCN(C)CC4)CC3)c(OC)c2)nc1NC1CCOCC1 [Gilteritinib],proportion of annexin-V-positive cells,significantly increased
